According to patent publication US20240360194A1, “New Peptides as Potent and Selective GIP Receptor Agonists” (Sanofi, priority 2021, published 2024):
≈ marks a conversion by molar mass, not a printed value. Like-named read-outs stand apart in the source and are kept apart here.

What was measured:
[1] = target: T1, human GLP-1 receptor (hGLP-1R) (Homo sapiens, UniProt P43220); assay: Binding assay, displacement of [125I]GLP-1 from HEK-293 membranes over-expressing GLP-1R (SPA); conditions: [125I]GLP-1 displacement
T1 sequence (P43220 24-463): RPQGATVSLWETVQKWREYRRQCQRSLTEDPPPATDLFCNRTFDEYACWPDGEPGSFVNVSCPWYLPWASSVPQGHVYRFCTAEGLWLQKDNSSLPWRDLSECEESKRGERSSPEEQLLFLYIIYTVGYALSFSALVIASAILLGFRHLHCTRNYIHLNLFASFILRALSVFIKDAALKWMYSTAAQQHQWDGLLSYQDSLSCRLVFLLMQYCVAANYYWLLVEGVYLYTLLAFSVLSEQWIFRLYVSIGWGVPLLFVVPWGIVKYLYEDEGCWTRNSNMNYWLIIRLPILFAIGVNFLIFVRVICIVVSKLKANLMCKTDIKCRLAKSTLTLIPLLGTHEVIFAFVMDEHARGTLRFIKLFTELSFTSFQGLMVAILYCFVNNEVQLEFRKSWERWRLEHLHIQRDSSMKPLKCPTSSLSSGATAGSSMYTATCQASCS
Experimental: (1) Preparation of Membranes from HEK-293 Cells Over-Expressing GIPR or GLP-1R
HEK-293 cells recombinantly over-expressing GIPR or GLP-1R were grown to 50% confluency, washed with warm 1×PBS (Gibco) and detached in HEPES/EDTA-buffer (100 mM HEPES pH 7.5, 5 mM EDTA). Cells were harvested by centrifugation at 4° C. and 3000×g and the pellets were stored at −80° C. until further processing.
After thawing on ice, pellets were resuspended in HEPES/EDTA-buffer and homogenized on ice for 1 min using Ultra-Turray T25. After subsequent sonification the cell debris was removed by centrifugation at 1000×g and 4° C. Supernatants were then ultra-centrifuged at 100000×g and 4° C. under vacuum for 30 min. Pellets were resuspended in HEPES/EDTA/NaCl-buffer (20 mM HEPES, 1 mM EDTA, 150 mM NaCl; add 1 Complete Mini Protease inhibitor cocktail to 10 ml buffer) and protein content was determined via BCA-Protein assay.
(2) Measurement of Binding Activity of Test Compounds to Human GIPR or GLP-1R

human GIP receptor = target: T2, human GIP receptor (Homo sapiens, UniProt P48546); assay: In vitro cellular cAMP assay for GIP receptor efficacy (human adipocytes); assay type: cell-based; conditions: for EC50: read-out: hGIPR EC50; for Emax: read-out: hGIPR Emax
T2 construct: human adipocytes endogenously expressing the human GIP receptor; host or cells: human preadipocytes (Lonza) differentiated to adipocytes
T2 sequence (P48546 22-466): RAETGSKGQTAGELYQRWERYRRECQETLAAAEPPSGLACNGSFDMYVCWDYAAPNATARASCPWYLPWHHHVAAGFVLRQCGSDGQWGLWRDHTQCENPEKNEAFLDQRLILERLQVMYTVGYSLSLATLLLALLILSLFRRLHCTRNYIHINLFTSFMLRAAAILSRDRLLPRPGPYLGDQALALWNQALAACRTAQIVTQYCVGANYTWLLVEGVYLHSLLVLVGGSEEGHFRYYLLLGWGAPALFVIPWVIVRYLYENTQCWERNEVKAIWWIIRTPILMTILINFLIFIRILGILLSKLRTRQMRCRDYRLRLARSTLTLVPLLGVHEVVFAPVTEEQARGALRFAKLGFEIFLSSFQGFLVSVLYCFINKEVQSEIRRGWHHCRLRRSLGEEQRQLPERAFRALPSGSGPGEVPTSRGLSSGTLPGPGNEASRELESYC
Summary of the method: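 cAMP is read by HTRF (665/620 nm ratio, 1 h after reagents in lysis buffer) following 30 min compound exposure at room temperature. Cells are human preadipocyte-derived adipocytes, differentiated 6 days with insulin, dexamethasone, IBMX (200 μM), PPARγ agonist and L-thyroxine, seeded 5000 per well.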

[2] = Solubility assessment (UHPLC-UV of supernatant, target 10 mg/ml); assay type: physicochemical; conditions: for solubility at 24 h: read-out: Soluble amount
Summary of the method: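 Peptides at 10 mg/ml (purity-corrected) in 100 mM phosphate pH 7.4, optionally with 2.7 mg/ml m-cresol; gentle agitation 1 h, then 5° C. overnight (24 h). Supernatant after 15 min centrifugation at 2500 RCF quantified by UHPLC-UV, with sequence-based extinction coefficients.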

[3] = target: T3, human GIP receptor (hGIPR) (Homo sapiens, UniProt P48546); assay: In vitro cellular cAMP assay for GIP receptor efficacy (HEK-293 cell line over-expressing receptor); assay type: cell-based
T3 sequence (P48546 22-466): T2 sequence (P48546 22-466)

[4] = target: T1, human GLP-1 receptor (hGLP-1R); assay: In vitro cellular cAMP assay for GLP-1 receptor efficacy (HEK-293 cell line over-expressing receptor); assay type: cell-based; conditions: HEK-293, 0.1% BSA
[5] = target: T3, human GIP receptor (hGIPR); assay: Binding assay, displacement of [125I]GIP from HEK-293 membranes over-expressing GIPR (SPA); conditions: [125I]GIP displacement
Summary of the method: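 Membranes from HEK-293 cells over-expressing human GIPR or GLP-1R, isolated by homogenising, sonicating and ultracentrifuging at 100000×g into HEPES/EDTA/NaCl buffer with protease inhibitors, were used for binding.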

[6] = EC50 hGIPR 0.1% BSA, HEK-293, 0.1% BSA
[7] = 100 mM phosphate buffer pH 7.4 (solubility buffer system A), pH 7.4, Solubility buffer system A: 100 mM phosphate buffer pH 7.4
[8] = pH 7.4, Solubility buffer system C: 100 mM phosphate buffer pH 7.4, 2.7 mg/ml m-cresol

| Compound | IC50 [1] | EC50 (human GIP receptor) | Emax (human GIP receptor) | solubility ([2]; pH 7.4, Soluble amount) | EC50 [3, 6] | EC50 ([3]; HEK-293, without albumin (0% HSA), read-out: EC50 hGIPR 0% HSA) | EC50 [4] | IC50 [5] | solubility at 24 h [2, 7] | solubility at 24 h [2, 8] |
| --- | --- | --- | --- | --- | --- | --- | --- | --- | --- | --- |
| CC[C@H](C)[C@H](NC(=O)[C@H](CCCNC(=N)N)NC(=O)[C@H](CC(=O)O)NC(=O)[C@H](CCCCNC(=O)COCCOCCNC(=O)COCCOCCNC(=O)CC[C@H](NC(=O)CCCCCCCCCCCCCCCCC(=O)O)C(=O)O)NC(=O)C(C)(C)NC(=O)[C@@H](NC(=O)[C@H](CO)NC(=O)[C@H](CC(C)C)NC(=O)[C@H](CC(=O)O)NC(=O)[C@H](CO)NC(=O)[C@@H](NC(=O)[C@@](C)(CC)NC(=O)[C@@H](NC(=O)CNC(=O)[C@H](CCC(=O)O)NC(=O)C(C)(C)NC(=O)[C@@H](N)Cc1ccc(O)cc1)[C@@H](C)O)[C@@H](C)CC)[C@@H](C)CC)C(=O)N[C@@H](Cc1c[nH]cn1)C(=O)N[C@@H](CCC(N)=O)C(=O)N[C@@H](CCC(=O)O)C(=O)N[C@@H](CCC(=O)O)C(=O)N[C@@](C)(Cc1ccccc1)C(=O)N[C@H](C(=O)N[C@@H](CCC(=O)O)C(=O)N[C@@H](Cc1c[nH]c2ccccc12)C(=O)N[C@@H](CC(C)C)C(=O)N[C@@H](CC(C)C)C(=O)N[C@@H](C)C(=O)N[C@@H](CCC(N)=O)C(=O)N[C@@H](CCCNC(=N)N)C(=O)NCC(N)=O)[C@@H](C)CC [SEQ ID NO: 17, H2N-Y-Aib-E-G-T-Iva-I-S-D-L-S-I-Aib-K[{AEEA}2-gGlu-C18OH]-D-R-I-H-Q-E-E-Mph-I-E-W-L-L-A-Q-R-G-NH2] | 935 nM | 0.8 nM | 110% | 7400 µg/mL (≈ 1700 µM) | 0.0821 nM | 0.00137 nM | > 10 nM | 0.2 nM |  |  |
| CC[C@H](C)[C@H](NC(=O)[C@H](CCCNC(=N)N)NC(=O)[C@H](CC(=O)O)NC(=O)[C@H](CCCCNC(=O)COCCOCCNC(=O)COCCOCCNC(=O)CC[C@H](NC(=O)CCCCCCCCCCCCCCCCCCC(=O)O)C(=O)O)NC(=O)C(C)(C)NC(=O)[C@@H](NC(=O)[C@H](CO)NC(=O)[C@H](CC(C)C)NC(=O)[C@H](CC(=O)O)NC(=O)[C@H](CO)NC(=O)[C@@H](NC(=O)[C@H](Cc1ccccc1)NC(=O)[C@@H](NC(=O)CNC(=O)[C@H](CCC(=O)O)NC(=O)C(C)(C)NC(=O)[C@@H](N)Cc1ccc(O)cc1)[C@@H](C)O)[C@@H](C)CC)[C@@H](C)CC)C(=O)N[C@@H](Cc1c[nH]cn1)C(=O)N[C@@H](CCC(N)=O)C(=O)NC(C)(C)C(=O)N[C@@H](CCC(=O)O)C(=O)N[C@@H](Cc1ccccc1)C(=O)N[C@H](C(=O)N[C@@H](CCC(=O)O)C(=O)N[C@@H](Cc1c[nH]c2ccccc12)C(=O)N[C@@H](CC(C)C)C(=O)N[C@@H](CC(C)C)C(=O)N[C@@H](C)C(=O)N[C@@H](CCC(N)=O)C(=O)N[C@@H](CCCNC(=N)N)C(=O)NCC(N)=O)[C@@H](C)CC [SEQ ID NO: 11, H2N-Y-Aib-E-G-T-F-I-S-D-L-S-I-Aib-K[{AEEA}2-gGlu-C20OH]-D-R-I-H-Q-Aib-E-F-I-E-W-L-L-A-Q-R-G-NH2] | 97 nM | 1.3 nM | 113% |  | 0.0192 nM |  | > 10 nM | 0.2 nM | 10700 µg/mL (≈ 2450 µM) |  |
| CC[C@H](C)[C@H](NC(=O)[C@H](CCCNC(=N)N)NC(=O)[C@H](CC(=O)O)NC(=O)[C@H](CCCCNC(=O)COCCOCCNC(=O)COCCOCCNC(=O)CC[C@H](NC(=O)CC[C@H](NC(=O)CCCCCCCCCCCCCCCCCCC(=O)O)C(=O)O)C(=O)O)NC(=O)C(C)(C)NC(=O)[C@@H](NC(=O)[C@H](CO)NC(=O)[C@H](CC(C)C)NC(=O)[C@H](CC(=O)O)NC(=O)[C@H](CO)NC(=O)[C@@H](NC(=O)[C@H](Cc1ccccc1)NC(=O)[C@@H](NC(=O)CNC(=O)[C@H](CCC(=O)O)NC(=O)C(C)(C)NC(=O)[C@@H](N)Cc1ccc(O)cc1)[C@@H](C)O)[C@@H](C)CC)[C@@H](C)CC)C(=O)N[C@@H](Cc1c[nH]cn1)C(=O)N[C@@H](CCC(N)=O)C(=O)NC(C)(C)C(=O)N[C@@H](CCC(=O)O)C(=O)N[C@@H](Cc1ccccc1)C(=O)N[C@H](C(=O)N[C@@H](CCC(=O)O)C(=O)N[C@@H](Cc1c[nH]c2ccccc12)C(=O)N[C@@H](CC(C)C)C(=O)N[C@@H](CC(C)C)C(=O)N[C@@H](C)C(=O)N[C@@H](CCC(N)=O)C(=O)N[C@@H](CCCNC(=N)N)C(=O)NCC(N)=O)[C@@H](C)CC [SEQ ID NO: 10, H2N-Y-Aib-E-G-T-F-I-S-D-L-S-I-Aib-K[{AEEA}2-{gGlu}2-C20OH]-D-R-I-H-Q-Aib-E-F-I-E-W-L-L-A-Q-R-G-NH2] | 183 nM | 1.2 nM | 98% |  | 0.0222 nM |  | > 10 nM | 0.5 nM | 7300 µg/mL (≈ 1620 µM) | 7200 µg/mL (≈ 1600 µM) |
| CC[C@H](C)[C@H](NC(=O)[C@H](CCCNC(=N)N)NC(=O)[C@H](CC(=O)O)NC(=O)[C@H](CCCCNC(=O)COCCOCCNC(=O)COCCOCCNC(=O)CC[C@H](NC(=O)CC[C@H](NC(=O)CCCCCCCCCCCCCCCCC(=O)O)C(=O)O)C(=O)O)NC(=O)C(C)(C)NC(=O)[C@@H](NC(=O)[C@H](CO)NC(=O)[C@H](CC(C)C)NC(=O)[C@H](CC(=O)O)NC(=O)[C@H](CO)NC(=O)[C@@H](NC(=O)[C@H](Cc1ccccc1)NC(=O)[C@@H](NC(=O)CNC(=O)[C@H](CCC(=O)O)NC(=O)C(C)(C)NC(=O)[C@@H](N)Cc1ccc(O)cc1)[C@@H](C)O)[C@@H](C)CC)[C@@H](C)CC)C(=O)N[C@@H](Cc1c[nH]cn1)C(=O)N[C@@H](CCC(N)=O)C(=O)NC(C)(C)C(=O)N[C@@H](CCC(=O)O)C(=O)N[C@@H](Cc1ccccc1)C(=O)N[C@H](C(=O)N[C@@H](CCC(=O)O)C(=O)N[C@@H](Cc1c[nH]c2ccccc12)C(=O)N[C@@H](CC(C)C)C(=O)N[C@@H](CC(C)C)C(=O)N[C@@H](C)C(=O)N[C@@H](CCC(N)=O)C(=O)N[C@@H](CCCNC(=N)N)C(=O)NCC(N)=O)[C@@H](C)CC [SEQ ID NO: 9, H2N-Y-Aib-E-G-T-F-I-S-D-L-S-I-Aib-K[{AEEA}2-{gGlu}2-C18OH]-D-R-I-H-Q-Aib-E-F-I-E-W-L-L-A-Q-R-G-NH2] | 224 nM | 0.8 nM | 108% |  | 0.00917 nM |  | > 10 nM | 0.6 nM | > 10200 µg/mL | 7700 µg/mL (≈ 1720 µM) |
